Tests used:
[1] = system: 3-mercaptopropionic acid (3-MPA)-induced convulsions; test: 3-MPA-induced convulsions, protection of mice; format: in vivo, male Swiss albino mice; settings: 3-MPA 120 mg/kg s.c.; for Number of Mice Protected From 3-MPA-Induced Convulsions: total protected of two groups of 5 mice
Procedure: (§1) Treatment of a mammal afflicted by or susceptible to certain CNS disorders is accomplished by administration of a therapeutically-effective amount of a compound of Formula I. In particular, Compounds #1-19 of Tables I and II were evaluated by in vitro and in vivo animal model assays to determine the pharmacological properties of such compounds and their likely suitability for use as therapeutic drugs in humans. These biological assays, as described below, consisted of prevention of induced convulsions in mice, determination of acute toxicity in mice and animal behavior assays. Except as otherwise specified, the animals used in the in vivo tests were male Swiss albino mice weight 22 to 33 g [CD1, Charles River, France], housed in groups of 10 on a 12-hour dark-light cycle for at least one week before use and fasted overnight prior to testing.
Compounds of Formula I were evaluated as inhibitors of convulsions and death induced by different convulsant agents: 3-mercaptopropionic acid (3-MPA; 120 mg/kg subcutaneously), pentylenetetrazole (PTZ, 55 mg/kg intravenously) and supramaximal electroconvulsive shocks (ECS evoked by a current intensity of 48 mA, 50 Hz. 0.2 sec duration, 10 msec square pulse, corneal electrodes) [W. van Dorsser, D. Barris, A. Cordi and J. Roba, Arch. Int. Pharmacodyn., 266, 239-249 (1983)]. The compounds of the invention were administered orally at a dosage of either 100 mg/kg or 30 mg/kg in a volume of 10 ml/kg each to 5 mice at intervals of 30 minutes or 2 hours before convulsions were induced. The number of mice protected against tonic convulsions and the number of dead mice were noted. Results are given in Table III as a score which represents the total number of mice protected for two groups of 5 animals (3-MPA).
(§2) Based upon data generated from the previously-described anti-convulsant experiments, ED50 values were calculated at which Compound #18 inhibits convulsions induced by the convulsant agents listed in Table V.

mice = system: mice; set-up: species or system male Swiss albino mice; settings: mouse, in vivo, po
Procedure: as §1
(§3) The acute toxicity of compounds of the invention was determined after oral administration of the test compound to mice. Compound to be tested was suspended in a 1% tragacanth gum mucilage, and was administered by means of an intragastric probe to a group of three male mice, which doses varied from 3,000 mg/kg down to about 3 mg/kg. Doses used in the test were determined by observing toxic effects on the mice. The mortality was recorded over a period of 15 days. The LD50 results reported in Table V were calculated according to published methods [Lichtfield and Wilcoxon, J. Pharmacol. Exp. Ther., 96, 99 (1949)] and expressed in mg or test compound per kilogram of mouse body weight.
Behavioral effects of compounds of the invention on animals were determined by observations taken at 5 to 6 hours and at 24 hours after administration of compounds in the acute toxicity studies. Determinations were made based on a method derived from that of S. Irwin [See R. A. Turner, Screening Methods in Pharmacology, Chapter 3, pages 22-34, Academic Press, N.Y. (1965)]. If an anomaly were noted, the observation was extended and smaller doses were tested. Possible types of behavior to be observed are as follows: analgesia (AAG), convulsions (CON), depression (DEP), exophthalmia (EOP), excitation (EXC), hyperalgesia (HAG), hypothermia (ATH), hypotonia (ATN), piloerection (PIE), palpebral ptosis (PTO), reduction of the pinna reflex (RPI), reduction of the rearing reflex (RRE), reduction of the flexion reflex (RRF), sedation (SED), tremors (TRE), cyanosis (CYA), diarrhea (DIA), increase of the pinna reflex (HPI), increase of the flexion reflex (HRF), dyspnea (DYS). Behaviors observed are reported in Table IV by numbers which represent the dose at which the behavior is observed.

[2] = Acute toxicity after oral administration; settings: mouse, in vivo, mice, mortality over 15 days
Procedure: as §1, §3

5HTP-induced head twitch = test: 5HTP-induced head twitch; format: in vivo, mice
Procedure: as §1
Compound #18 was evaluated for inhibition of head twitches produced in mice by administration of L-5-hydroxytryptophan (5HTP, 10 mg/kg intraperitoneously) after nialamide treatment (50 mg/kg intraperitoneal, 22 hours before the test). The head twitches were counted for 45 min. starting 15 min. after 5HTP administration. [E. Friedmann & al.; Europ. J. Pharmocol., 89, 69-76 (1983)].

[3] = system: afterdischarge-like spike activity; test: Chronic focal epilepsy assay (cobalt powder on frontal cortex, EEG); format: in vivo; settings: intraperitoneal, rat
Description: In a model of chronic focal epilepsy where cobalt powder is placed on rat frontal cortex, the animals develop, after several days, chronic expression of afterdischarge-like spike activity which can be recorded by EEG.

[4] = system: hypomotility induced by the α2 agonist clonidine; test: Clonidine-induced hypomotility; format: in vivo; settings: 10 mg/kg; clonidine 150 mg/kg i.p.; eight mice, 90 min after clonidine
Procedure: as §1
Given alone, clonidine inhibits spontaneous locomotor and rearing activity. Eight test mice were treated with Compound #18 and subsequently with clonidine ([…], intraperitoneal). Then, 90 min. after clonidine administration the mice were placed in a rectangular open field of 47×53 cm, having a floor divided into 36 boxes of about 8×9 cm. The number of boxes through which the animal goes in 3 min. and the number of rearing episodes were noted.

[5] = system: pentylenetetrazole (PTZ)-induced convulsions; test: Pentylenetetrazole (PTZ) induced convulsions; format: in vivo, male Swiss albino mice; settings: Mus musculus; oral; PTZ 55 mg/kg i.v.; read-out: Inhibition of Convulsions (ED50), PZT
Procedure: as §1, with “Except as otherwise specified, the animals used in the in vivo tests were male Swiss albino mice weight 22 to 33 g [CD1, Charles River, France], housed in groups of 10 on a 12-hour dark-light cycle for at least one week before use and fasted overnight prior to testing.” left out
(§4) Compounds of Formula I were evaluated as inhibitors of convulsions and death induced by different convulsant agents: 3-mercaptopropionic acid (3-MPA; 120 mg/kg subcutaneously), pentylenetetrazole (PTZ, 55 mg/kg intravenously) and supramaximal electroconvulsive shocks (ECS evoked by a current intensity of 48 mA, 50 Hz. 0.2 sec duration, 10 msec square pulse, corneal electrodes) [W. van Dorsser, D. Barris, A. Cordi and J. Roba, Arch. […]
as §2

[6] = system: supramaximal electroconvulsive shocks (ECS)-induced convulsions; test: Supramaximal electroconvulsive shock (ECS) induced convulsions; format: in vivo, male Swiss albino mice; settings: Mus musculus; oral; ECS 48 mA, 50 Hz, 0.2 sec; read-out: Inhibition of Convulsions (ED50), ECS
Procedure: as §1, with “Except as otherwise specified, the animals used in the in vivo tests were male Swiss albino mice weight 22 to 33 g [CD1, Charles River, France], housed in groups of 10 on a 12-hour dark-light cycle for at least one week before use and fasted overnight prior to testing.” left out
as §4, §2

Compound | Number of Mice Protected From 3-MPA-Induced Convulsions ([1]; oral 30 mpk, interval 30 min) | Number of Mice Protected From 3-MPA-Induced Convulsions ([1]; oral 100 mpk, interval 30 min) | Behavior: dose at which sedation (SED) is observed (mice) | LD50 at 360 h [2] | other results
NC(=O)CNC(c1ccccc1)c1ccc(F)cc1 (stereo not shown) [Compound 12, 2-[(4-fluorophenyl)phenyl]methylaminoacetamide] | 9 mice | 10 mice | – | – | –
COc1ccc(C(NCC(N)=O)c2ccccc2)cc1 (stereo not shown) [Compound 2, 2-[(4-methoxyphenyl)phenyl]methylaminoacetamide] | – | 8 mice | – | – | –
Cc1ccccc1C(NCC(N)=O)c1ccccc1 (stereo not shown) [Compound 4, 2-[(2-methylphenyl)phenyl]methylaminoacetamide] | 5 mice | – | 300 mg/kg | 780 mg/kg | Behavior: dose at which hypotonia (ATN) is observed (mice): 300 mg/kg
Cc1cccc(C(NCC(N)=O)c2ccccc2)c1 (stereo not shown) [Compound 5, 2-[(3-methylphenyl)phenyl]methylaminoacetamide] | 2 mice | – | 1000 mg/kg | 3500 mg/kg | –
NC(=O)CNC(c1ccc(F)cc1)c1ccccc1F (stereo not shown) [Compound 11, 2-[(4-fluorophenyl)(2-fluorophenyl)]methylaminoacetamide] | 8 mice | – | 100 mg/kg | 315 mg/kg | Behavior: dose at which convulsions (CON) are observed (mice): 1000 mg/kg; Behavior: dose at which depression (DEP) is observed (mice): 1000 mg/kg
Cc1ccc(C)c(C(NCC(N)=O)c2ccccc2)c1 (stereo not shown) [Compound 9, 2-[(2,5-dimethylphenyl)phenyl]methylaminoacetamide] | 1 mice | – | – | – | –
NC(=O)CNC(c1ccccc1)c1ccccc1Cl (stereo not shown) [Compound 16, 2-[(2-chlorophenyl)phenyl]methylaminoacetamide] | – | 9 mice | – | – | –
NC(=O)CNC(c1ccccc1)c1ccc(Cl)cc1 (stereo not shown) [Compound 1, 2-[(4-chlorophenyl)phenyl]methylaminoacetamide] | – | 9 mice | 1000 mg/kg | 2400 mg/kg | Behavior: dose at which convulsions (CON) are observed (mice): 1000 mg/kg; Behavior: dose at which hypotonia (ATN) is observed (mice): 1000 mg/kg
Cc1ccc(C(NCC(N)=O)c2ccccc2)cc1C (stereo not shown) [Compound 6, 2-[(3,4-dimethylphenyl)phenyl]methylaminoacetamide] | 2 mice | – | 3000 mg/kg | 3500 mg/kg | Behavior: dose at which hypotonia (ATN) is observed (mice): 3000 mg/kg
CCCCCNCC(N)=O [2-pentylaminoacetamide, reference compound] | – | – | – | – | effect on 5HTP-induced head twitch (comparison compound) (5HTP-induced head twitch; under similar test conditions): potentiates 5HTP-induced head twitch
NC(=O)CNC(c1ccccc1)c1ccccc1 [Compound 18, 2-diphenylmethylaminoacetamide] | 9 mice | 10 mice | – | 1020 mg/kg | time over which inhibition of spike activities was observed ([3]; threshold dose of 50 mg/kg): 14 to 90 min; minimal effective dose ([3]; ip, read-out: threshold dose for inhibiting spike activities): 50 mg/kg; Behavior: dose at which depression (DEP) is observed (mice): 1000 mg/kg; Behavior: dose at which palpebral ptosis (PTO) is observed (mice): 1000 mg/kg; ED50 (5HTP-induced head twitch; Mus musculus, po, 2 hours before 5HTP (10 mg/kg i.p.), nialamide pretreated mice, read-out: ED50 for inhibition of 5HTP-induced head twitches): 10 mg/kg; effect on 5HTP-induced head twitch (5HTP-induced head twitch; mice, nialamide treatment): inhibited 5HTP-induced head twitch; ED50 ([1]; Mus musculus, oral, read-out: Inhibition of Convulsions (ED50), 3-MPA): 9.3 mg/kg; Number of Mice Protected From 3-MPA-Induced Convulsions ([1]; oral 100 mpk, interval 2 hr): 10 mice; effect on clonidine-induced hypomotility [4]: seems unable to alter the hypomotility; ED50 [5]: 66 mg/kg; ED50 [6]: 26 mg/kg
Cc1ccc(C(NCC(N)=O)c2ccccc2)c(C)c1 (stereo not shown) [Compound 14, 2-[(2,4-dimethylphenyl)phenyl]methylaminoacetamide] | 3 mice | 6 mice | – | – | –
NC(=O)CNC(c1ccc(F)cc1)c1ccc(F)cc1 [Compound 13, 2-[di(4-fluorophenyl)]methylaminoacetamide] | 5 mice | – | – | – | –
NC(=O)CNC(c1ccccc1)c1ccc(C(F)(F)F)cc1 (stereo not shown) [Compound 7, 2-[(4-trifluoromethylphenyl)phenyl]methylaminoacetamide] | 4 mice | – | – | – | –
NC(=O)CNC(c1ccc(Cl)cc1)c1ccc(Cl)cc1 [Compound 8, 2-[di(4-chlorophenyl)]methylaminoacetamide] | 1 mice | – | – | – | –
Cc1ccc(C(NCC(N)=O)c2ccccc2)cc1 (stereo not shown) [Compound 3, 2-[(4-methylphenyl)phenyl]methylaminoacetamide] | 1 mice | – | 1000 mg/kg | > 3000 mg/kg | Behavior: dose at which depression (DEP) is observed (mice): 3000 mg/kg
NC(=O)CNC(c1ccccc1)c1cccc(Cl)c1 (stereo not shown) [Compound 15, 2-[(3-chlorophenyl)phenyl]methylaminoacetamide] | – | 9 mice | – | – | –
NC(=O)CNC(c1ccccc1)c1ccc(Br)cc1 (stereo not shown) [Compound 10, 2-[(4-bromophenyl)phenyl]methylaminoacetamide] | 3 mice | – | 1000 mg/kg | > 1000 mg/kg | –
NC(=O)CNC(c1ccc(F)cc1)c1ccccc1Cl (stereo not shown) [Compound 17, 2-[(2-chlorophenyl)(4-fluoropheny)]methylaminoacetamide] | – | 10 mice | – | – | –

From US5278191A, “Diphenylmethylaminoacetamide derivatives as anti-convulsants” (G. D. Searle & Co., priority 1991, dated 1994)
